# Reference: patent US20230416225A1, “DIAMINOPYRIMIDINE CARBOXAMIDE INHIBITORS OF HPK1” (MERCK SHARP & DOHME LLC, priority 2020, published 2023)
# Molecular target: T1, Human HPK1, catalytic domain (Homo sapiens, UniProt Q92918)
# T1 construct: purchased Carna
# T1 sequence (Q92918 1-346): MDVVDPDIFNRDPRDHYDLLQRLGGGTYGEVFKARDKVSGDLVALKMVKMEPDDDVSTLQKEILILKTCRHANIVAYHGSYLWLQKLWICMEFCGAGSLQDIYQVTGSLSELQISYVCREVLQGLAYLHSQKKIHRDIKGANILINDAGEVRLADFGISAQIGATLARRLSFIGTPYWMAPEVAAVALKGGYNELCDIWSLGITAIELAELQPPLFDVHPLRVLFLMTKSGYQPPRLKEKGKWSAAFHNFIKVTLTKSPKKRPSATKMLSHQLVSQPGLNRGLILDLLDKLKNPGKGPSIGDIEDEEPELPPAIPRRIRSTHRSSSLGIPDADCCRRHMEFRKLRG
# Assay: HPK1-SLP76 TR-FRET assay
# Assay type: biochemical
# Details: 75 pM HPK1, 10 uM ATP, 10 nM SLP76, 30 min compound pre-incubation
row,SMILES,IC50 [nM]
1,"Cc1c(Cl)cccc1Nc1ncc(C(N)=O)c(Nc2cccc3c2CCNC3=O)n1 [Example 25-26, 2-[(3-chloro-2-methylphenyl)amino]-4-[(1-oxo-1,2,3,4-tetrahydroisoquinolin-5-yl)amino]pyrimidine-5-carboxamide]",203
2,"NC(=O)c1cnc(Nc2ccccc2OC(F)F)nc1Nc1cccc2c1CCNC2=O [Example 25-27, 2-{[2-(difluoromethoxy)phenyl]amino}-4-[(1-oxo-1,2,3,4-tetrahydroisoquinolin-5-yl)amino]pyrimidine-5-carboxamide]",881
3,"CNCc1ccccc1Nc1nc(Nc2cc3c(cc2OC)CCN(C)C3)ncc1C(N)=O [Example 2-4, 2-[(6-methoxy-2-methyl-1,2,3,4-tetrahydroisoquinolin~7-yl)amino]-4-({2-[(methylamino)methyl]-phenyl}amino)pyrimidine-5-carboxamide]",0.63
4,"COc1cc2c(cc1Nc1ncc(C(N)=O)c(Nc3ccccc3CC(C)c3ccccc3)n1)CN(C)CC2 (stereo not shown) [Example 13-7, 2-[(6-methoxy-2-methyl-1,2,3,4-tetrahydroisoquinolin-7-yl)amino]-4-{[2-(2-phenylpropyl)phenyl]amino}pyrimidine-5-carboxamide]",215
5,"COc1cc2c(cc1Nc1ncc(C(N)=O)c(Nc3ccc(Br)cc3)n1)CN(C)CC2 [Example 7-72, 4-[(4-bromophenyl)amino]-2-[(6-methoxy-2-methyl-1,2,3,4-tetrahydroisoquinolin-7-yl)amino]pyrimidine-5-carboxamide]",1.52
6,"CCC1[C@@H](C(=O)Nc2ncc(C(N)=O)c(Nc3ccccc3Br)n2)[C@@H]1c1cnn(C)c1 (stereo partly drawn) [Example 22-2, 4-[(2-bromophenyl)amino]-2-{[(1R,3R)-2-ethyl-3-(1-methyl-1H-pyrazol-4-yl)cyclopropane-1-carbonyl]amino}pyrimidine-5-carboxamide]",468
7,"C#Cc1ccccc1Nc1nc(Nc2cc3c(cc2OC)CCN(C)C3)ncc1C(N)=O [Example 7-102, 4-[(2-ethynylphenyl)amino]-2-[(6-methoxy-2-methyl-1,2,3,4-tetrahydroisoquinolin-7-yl)amino]pyrimidine-5-carboxamide]",0.61
8,"CCn1ncc(C)c1Nc1nc(Nc2cc3c(cc2OC)CCN(C)C3)ncc1C(N)=O [Example 7-93, 4-((1-ethyl-4-methyl-1H-pyrazol-5-yl)amino)-2-((6-methoxy-2-methyl-1,2,3,4-tetrahydroisoquinolin-7-yl)amino)pyrimidine-5-carboxamide]",18.5
9,"N#CC1(c2ccc(Nc3ncc(C(N)=O)c(Nc4cccc5c4CCNC5)n3)cc2)CC1 [Example 7-15, 2-{[4-(1-cyanocyclopropyl)phenyl]amino}-4-[(1,2,3,4-tetrahydroisoquinolin-5-yl)amino]pyrimidine-5-carboxamide]",0.13
10,"COc1cc2c(cc1Nc1ncc(C(N)=O)c(Nc3ccccc3C#N)n1)CN(C)CC2 [Example 7-49, 4-[(2-cyanophenyl)amino]-2-[(6-methoxy-2-methyl-1,2,3,4-tetrahydroisoquinolin-7-yl)amino]pyrimidine-5-carboxamide]",0.34
11,"COc1cc2c(cc1Nc1ncc(C(N)=O)c(Nc3ccccc3-c3ncco3)n1)CN(C)CC2 [Example 14-3, 2-[(6-methoxy-2-methyl-1,2,3,4-tetrahydroisoquinolin-7-yl)amino]-4-{[2-(1,3-oxazol-2-yl)phenyl]amino}pyrimidine-5-carboxamide]",0.64
12,"COc1ccc(C(N)=O)cc1Nc1ncc(C(N)=O)c(Nc2ccccc2Br)n1 [Example 7-95, 4-[(2-bromophenyl)amino]-2-[(5-carbamoyl-2-methoxyphenyl)amino]pyrimidine-5-carboxamide]",548
13,"COc1cc2c(cc1Nc1ncc(C(N)=O)c(NCc3ccc(C(F)(F)F)cc3)n1)CN(C)CC2 [Example 26-61, 2-[(6-methoxy-2-methyl-1,2,3,4-tetrahydroisoquinolin-7-yl)amino]-4-({[4-(trifluoromethyl)phenyl]methyl}amino)pyrimidine-5-carboxamide]",146
14,COc1cc2c(cc1Nc1ncc(C(N)=O)c(Nc3c(F)cccc3C#N)n1)CN(C)CC2 [Example 4-9],5.65
15,"COc1cc2c(cc1Nc1ncc(C(N)=O)c(Nc3ccccc3OC(F)F)n1)CN(C)CC2 [Example 7-114, 4-{[2-(difluoromethoxy)phenyl]amino}-2-[(6-methoxy-2-methyl-1,2,3,4-tetrahydroisoquinolin-7-yl)amino]pyrimidine-5-carboxamide]",0.09
16,"CC(N)c1cccc(Nc2nc(Nc3cc4c(cc3Cl)CCN(C)C4)ncc2C(N)=O)c1 (stereo not shown) [Example 2-6, 4-{[3-(1-aminoethyl)phenyl]-amino}-2-[(6-chloro-2-methyl-1,2,3,4-tetrahydroisoquinolin-7-yl)amino]pyrimidine-5-carboxamide]",0.54

row,SMILES,IC50 [nM]
1,"COc1cc2c(cc1Nc1ncc(C(N)=O)c(N[C@H]3c4ccccc4C[C@H]3CO)n1)CN(C)CC2 [Example 26-62, 4-{[(1R,2R)-2-(hydroxymethyl)-2,3-dihydro-1H-inden-1-yl]amino}-2-[(6-methoxy-2-methyl-1,2,3,4-tetrahydroisoquinolin-7-yl)amino]pyrimidine-5-carboxamide]",15.6
2,"COc1cc2c(cc1Nc1ncc(C(N)=O)c(Nc3cccc(F)c3)n1)CN(C)CC2 [Example 7-18, 4-[(3-fluorophenyl)amino]-2-[(6-methoxy-2-methyl-1,2,3,4-tetrahydroisoquinolin-7-yl)amino]pyrimidine-5-carboxamide]",0.29
3,"NC(=O)c1cnc(Nc2cnn(CC3CC3)c2)nc1Nc1cccc2c1CCNC2=O [Example 7-43, 2-{[1-(cyclopropylmethyl)-1H-pyrazol-4-yl]amino}-4-[(1-oxo-1,2,3,4-tetrahydroisoquinolin-5-yl)amino]pyrimidine-5-carboxamide]",4.25
4,"COc1cc2c(cc1Nc1ncc(C(N)=O)c(Nc3cccc4c3OCC4)n1)CN(C)CC2 [Example 7-7, 4-[(2,3-dihydro-1-benzofuran-7-yl)amino]-2-[(6-methoxy-2-methyl-1,2,3,4-tetrahydroisoquinolin-7-yl)amino]pyrimidine-5-carboxamide]",0.03
5,"CCn1cc(Cl)c(Nc2nc(Nc3cc4c(cc3OC)CCN(C)C4)ncc2C(N)=O)n1 [Example 7-87, 4-((4-chloro-1-ethyl-1H-pyrazol-3-yl)amino)-2-((6-methoxy-2-methyl-1,2,3,4-tetrahydroisoquinolin-7-yl)amino)pyrimidine-5-carboxamide]",4.78
6,"COc1cc(C2CCCN2)ccc1Nc1ncc(C(N)=O)c(Nc2ccccc2C(F)(F)F)n1 (stereo not shown) [Example 8-1, 2-((2-Methoxy-4-(pyrrolidin-2-yl)phenyl)amino)-4-((2-(trifluoromethyl)phenyl)amino)pyrimidine-5-carboxamide]",1.26
7,"CCc1ccccc1Nc1ncc(C(N)=O)c(Nc2cccc3c2CCNC3=O)n1 [Example 25-15, 2-[(2-ethylphenyl)amino]-4-[(1-oxo-1,2,3,4-tetrahydroisoquinolin-5-yl)amino]pyrimidine-5-carboxamide]",210
8,"CCOc1ccccc1Nc1nc(Nc2cc3c(cc2OC)CCN(C)C3)ncc1C(N)=O [Example 7-112, 4-[(2-ethoxyphenyl)amino]-2-[(6-methoxy-2-methyl-1,2,3,4-tetrahydroisoquinolin-7-yl)amino]pyrimidine-5-carboxamide]",0.03
9,"Cc1cccc(F)c1Nc1nc(Nc2ccc(S(C)(=O)=O)cc2)ncc1C(N)=O [Example 4-25, 4-[(2-fluoro-6-methylphenyl)amino]-2-{[4-(methylsulfonyl)phenyl]amino} pyrimidine-5-carboxamide]",81.6
10,"COc1cc2c(cc1Nc1ncc(C(N)=O)c(NCc3cccc(C(F)(F)F)c3)n1)CN(C)CC2 [Example 26-35, 2-[(6-methoxy-2-methyl-1,2,3,4-tetrahydroisoquinolin-7-yl)amino]-4-({[3-(trifluoromethyl)phenyl]methyl}amino)pyrimidine-5-carboxamide]",52.8
11,"CS(=O)(=O)c1ccc(Nc2ncc(C(N)=O)c(Nc3cccc4c3CCNC4)n2)cc1 [Example 7-1, 2-{[4-(methylsulfonyl)phenyl]amino}-4-[(1,2,3,4-tetrahydroisoquinolin-5-yl)amino]pyrimidine-5-carboxamide]",0.66
12,"CNC(=O)c1cccc(Nc2nc(Nc3cc4c(cc3OC)CCN(C)C4)ncc2C(N)=O)c1 [Example 7-38, 2-[(6-methoxy-2-methyl-1,2,3-tetrahydroisoquinolin-7-yl)amino]-4-{[3-(methylcarbamoyl)phenyl]amino} pyrimidine-5-carboxamide]",7.77
13,"COc1cc2c(cc1Nc1ncc(C(N)=O)c(N[C@H](CO)C3CCCCC3)n1)CN(C)CC2 [Example 26-48, 4-{[(1S)-1-cyclohexyl-2-hydroxyethyl]amino}-2-[(6-methoxy-2-methyl-1,2,3,4-tetrahydroisoquinolin-7-yl)amino]pyrimidine-5-carboxamide]",22.8
14,"CC(C)(C)c1cccc(Nc2ncc(C(N)=O)c(Nc3cccc4c3CCNC4=O)n2)c1 [Example 25-20, 2-[(3-tert-butylphenyl)amino]-4-[(1-oxo-1,2,3,4-tetrahydroisoquinolin-5-yl)amino]pyrimidine-5-carboxamide]",3.31
15,"CN1CCc2cc(F)c(Nc3ncc(C(N)=O)c(Nc4cccc5c4CCNC5=O)n3)cc2C1 [Example 7-37, 2-[(6-fluoro-2-methyl-1,2,3,4-tetrahydroisoquinolin-7-yl)amino]-4-[(1-oxo-1,2,3,4-tetrahydroisoquinolin-5-yl)amino]pyrimidine-5-carboxamide]",0.21
